Converted amounts (≈) assume the structure as drawn.
Columns and labels:
[1] = Mean serum concentration in neonatal piglets after intramuscular or oral administration; type: in vivo; details: pig, 50 mg/kg; for concentration at 1 h: 60'
Protocol: e) Mean serum concentration in neonatal piglets of Examples 4 and 5 after intramuscular or oral administration at 50 mg/kg
Blood levels were assessed in neonatal piglets (2 to 4 animals per group and man bodyweights about 2 kg). The dose was 50 mg/kg (dose solution = 25 mg/ml in 25% ethanol). Doses were given by intramuscular injection and orally by stomach tube. Piglets were bled at intervals up to 8 and at 24 hours, and serum assayed microbiologically (B. subtilis ATCC 6633).

[2] = system: Strep suis (group D) SPS11; experiment: MIC, veterinary bacteria; type: cell-based; details: veterinary bacteria (Table 2), read-out: MIC
Strep agalactiae SPA1 = experiment: MIC, veterinary bacteria; type: cell-based; details: veterinary bacteria (Table 2), read-out: MIC
E coli NCTC 10418 = experiment: MIC, veterinary bacteria; type: cell-based; details: veterinary bacteria (Table 2), read-out: MIC
Past multocida PA2 = experiment: MIC, veterinary bacteria; type: cell-based; details: veterinary bacteria (Table 2), read-out: MIC
M dispar H225 = experiment: MIC, anti-mycoplasmal, Friis' broth microtiter method; type: cell-based; details: read-out: in vitro MIC, BROTH
[3] = system: Staph aureus 152 (pen sens); experiment: MIC, veterinary bacteria; type: cell-based; details: Staphylococcus aureus, veterinary bacteria (Table 2), read-out: MIC
S dublin S7 = experiment: MIC, veterinary bacteria; type: cell-based; details: veterinary bacteria (Table 2), read-out: MIC
S typhimurium S18 = experiment: MIC, veterinary bacteria; type: cell-based; details: veterinary bacteria (Table 2), read-out: MIC
[4] = system: Staph aureus B4 (pen resis); experiment: MIC, veterinary bacteria; type: cell-based; details: Staphylococcus aureus, veterinary bacteria (Table 2), read-out: MIC
Past Haemolytica PA5 = experiment: MIC, veterinary bacteria; type: cell-based; details: veterinary bacteria (Table 2), read-out: MIC
E coli E1 = experiment: MIC, veterinary bacteria; type: cell-based; details: veterinary bacteria (Table 2), read-out: MIC
Past multocida PA1 = experiment: MIC, veterinary bacteria; type: cell-based; details: veterinary bacteria (Table 2), read-out: MIC
Strep uberis SPU1 = experiment: MIC, veterinary bacteria; type: cell-based; details: veterinary bacteria (Table 2), read-out: MIC
M pneumoniae 427a = experiment: MIC, anti-mycoplasmal, Friis' broth microtiter method; type: cell-based; details: read-out: in vitro MIC, BROTH
Bord bronchisptica BO9 = experiment: MIC, veterinary bacteria; type: cell-based; details: veterinary bacteria (Table 2), read-out: MIC
[5] = system: Erysipelothrix rhusiopathiae NCTC 8163; experiment: MIC, veterinary bacteria; type: cell-based; details: NCTC8163, veterinary bacteria (Table 2), read-out: MIC
Staph aureus Oxford = experiment: MIC, veterinary bacteria; type: cell-based; details: Staphylococcus aureus, veterinary bacteria (Table 2), read-out: MIC
[6] = Serum binding by ultrafiltration; type: in vitro ADME, pig; details: pig, serum, compounds at 8 mcg/ml, microbiological assay (B. subtilis ATCC 6633), read-out: % bound to pig serum (converted)
Protocol: Serum binding was assessed by ultrafiltration of procine serum containing compounds at 8 mcg/ml, and through an Amicon CF50A ultrafiltration cone. Separation of ultrafiltrate was achieved by centrifugation.

M pneumoniae ATCC 15492 = experiment: MIC, anti-mycoplasmal, Friis' broth microtiter method; type: cell-based; details: read-out: in vitro MIC, BROTH
M dispar NCTC 10125 = experiment: as above; type: cell-based; details: read-out: in vitro MIC, BROTH
M suipneumoniae Str 11 = experiment: as above; type: cell-based; details: read-out: in vitro MIC, BROTH
Strep dysgalaciae SPD1 = experiment: MIC, veterinary bacteria; type: cell-based; details: veterinary bacteria (Table 2), read-out: MIC
[7] = system: M suipneumoniae J2206/183b; experiment: MIC, anti-mycoplasmal, Friis' broth microtiter method; type: cell-based; details: read-out: in vitro MIC, BROTH
Bord bronchiseptica BO8 = experiment: MIC, veterinary bacteria; type: cell-based; details: veterinary bacteria (Table 2), read-out: MIC
M fermentans MWKL4 = experiment: MIC, anti-mycoplasmal, Friis' broth microtiter method; type: cell-based; details: read-out: in vitro MIC, BROTH
[8] = system: Corynebacterium pyogenes CY1; experiment: MIC, veterinary bacteria; type: cell-based; details: veterinary bacteria (Table 2), read-out: MIC
M pulmonis JB = experiment: MIC, anti-mycoplasmal, Friis' broth microtiter method; type: cell-based; details: read-out: in vitro MIC, BROTH

concentration at 10 min ([1]; im): 9000 ng/mL | concentration at 20 min ([1]; im): 8900 ng/mL | concentration at 40 min ([1]; im): 10000 ng/mL | concentration at 1 h ([1]; im): 8500 ng/mL | concentration at 2 h ([1]; im): 3300 ng/mL | concentration at 3 h ([1]; im): 1900 ng/mL | concentration at 4 h ([1]; im): 1600 ng/mL | concentration at 6 h ([1]; im): 830 ng/mL | concentration at 8 h ([1]; im): 710 ng/mL | concentration at 24 h ([1]; im): < 120 ng/mL | concentration at 10 min ([1]; po): 5300 ng/mL | concentration at 20 min ([1]; po): 5500 ng/mL | concentration at 40 min ([1]; po): 6500 ng/mL | concentration at 1 h ([1]; po): 5700 ng/mL | concentration at 2 h ([1]; po): 2400 ng/mL | concentration at 3 h ([1]; po): 1400 ng/mL | concentration at 4 h ([1]; po): 1400 ng/mL | concentration at 6 h ([1]; po): 770 ng/mL | concentration at 8 h ([1]; po): 740 ng/mL | concentration at 24 h ([1]; po): 150 ng/mL | MIC [2]: 2.5 µg/mL (≈ 5.03 µM) | MIC (Strep agalactiae SPA1): 0.312 µg/mL (≈ 0.628 µM) | MIC (E coli NCTC 10418): > 80 µg/mL | MIC (Past multocida PA2): 0.07 µg/mL (≈ 0.141 µM) | MIC (M dispar H225): < 0.02 µg/mL | MIC [3]: 0.156 µg/mL (≈ 0.314 µM) | MIC (S dublin S7): > 80 µg/mL | MIC (S typhimurium S18): > 80 µg/mL | MIC [4]: 0.156 µg/mL (≈ 0.314 µM) | MIC (E coli E1): > 80 µg/mL | MIC (Past multocida PA1): 0.312 µg/mL (≈ 0.628 µM) | MIC (Strep uberis SPU1): < 0.019 µg/mL | MIC (M pneumoniae 427a): 0.312 µg/mL (≈ 0.628 µM) | MIC (Bord bronchisptica BO9): 5 µg/mL (≈ 10.1 µM) | MIC [5]: 20 µg/mL (≈ 40.3 µM) | MIC (Staph aureus Oxford): 0.156 µg/mL (≈ 0.314 µM) | fraction unbound [6]: 0.012 | MIC (M pneumoniae ATCC 15492): 0.312 µg/mL (≈ 0.628 µM) | MIC (M dispar NCTC 10125): 0.039 µg/mL (≈ 0.0785 µM) | MIC (M suipneumoniae Str 11): 0.078 µg/mL (≈ 0.157 µM) | MIC (Strep dysgalaciae SPD1): 0.156 µg/mL (≈ 0.314 µM) | MIC [7]: 0.078 µg/mL (≈ 0.157 µM) | MIC (Bord bronchiseptica BO8): 40 µg/mL (≈ 80.5 µM) | MIC (M fermentans MWKL4): < 0.02 µg/mL | MIC [8]: > 80 µg/mL | MIC (M pulmonis JB): < 0.02 µg/mL
Compound: CC(=CC(=O)OCCCC(=O)c1cccs1)CC1OCC(CC2OC2C(C)C(C)O)C(O)C1O (centres unmarked) [Example 4, 4(1-Thienyl-2-ylbutan-1-onyl) monate A]
MIC (Past Haemolytica PA5): 5 µg/mL (≈ 10.1 µM)

From EP0025288A1, “Derivatives of monic acid, processes for their preparation, compositions containing them and their preparation” (priority 1979, dated 1981)
